Laboratory results published in US10894040B2, “S1P modulating agents” (BIOGEN MA INC., priority 2011, dated 2021).

Test system: A2B5+ OPCs
Test: OPC differentiation assay
Assay type: cell-based, Sprague Dawley rats
Conditions: 3-day incubation; for activity in the OPC assay at 2 micromolar / activity in the OPC assay at 20 micromolar: symbols not defined in the patent; for EC50: Rattus norvegicus, 72 h, MSD analysis
Method: OPC Differentiation Assay
Enriched populations of oligodendrocytes were grown from post-natal day 2 (P2) female Sprague Dawley rats. The forebrain was dissected out and placed in Hank's buffered saline solution (HBSS; Invitrogen, Grand Island, N.Y.). The tissue was cut into 1 mm fragments and incubated at 37° C. for 15 minutes in 0.01% trypsin and 10 μg/mL DNase. Dissociated cells were plated on poly-L-lysine-coated T75 tissue culture flasks and grown at 37° C. for 10 days in Dulbecco's modified Eagle's medium (DMEM) with 20% fetal calf serum (Invitrogen). A2B5^+ OPCs were collected by shaking the flask overnight at 200 rpm and 37° C., resulting in a 95% pure population.
For the differentiation assay, 2 μM and 20 μM antagonist or the same concentrations of vehicle (DMSO) were applied to OPCs cultured in CNTF/T3 containing media. After a 3-day incubation, […], cell were lysed and then subjected to MSD (Meso Scale Discovery-R) analysis. EC50 was calculated by Prism using a nonlinear sigmoidal dose-response curvecells. Alternatively, cells were lysed in 80 μL lysis buffer (50 mM HEPES [4-(2-hydroxyethyl)-1-piperazineethanesulfonic acid], pH 7.5, 150 mM NaCl, 1.5 mM MgCl2, 1 mM ethylene glycol tetraacetic acid [EGTA], 1% Triton X-100 and 10% glycerol) for 30 minutes at 4° C. After centrifugation at 14,000 g for 15 minutes, the supernatants were boiled in Laemmli sample buffer, subjected to 4-20% SDS-PAGE, and analyzed by Western blotting with anti-MBP, anti-myelin-associated glycoprotein (MAG), or anti-beta actin antibodies. The secondary antibodies used were anti-mouse IgG-HRP (horseradish peroxidase) and anti-rabbit IgG-HRP respectively.

| SMILES | activity in the OPC assay at 2 micromolar | activity in the OPC assay at 20 micromolar | EC50 [µM] |
| --- | --- | --- | --- |
| CCCCC1CCC(Oc2ccc3cc(CN4CCC(C(=O)O)CC4)ccc3c2)CC1 (mixture of isomers) [Example 32, 1-((6-(4-Butylcyclohexyloxy)naphthalen-2-yl)methyl)piperidine-4-carboxylic acid] | + to ++++ | + to ++++ | < 10 |
| CC(C)(C)[C@H]1CC[C@H](Oc2ccc3nc(CN4CCC(C(=O)O)CC4)ncc3c2)CC1 [Example 15, 1-((6-(trans-4-tert-Butylcyclohexyloxy)quinazolin-2-yl)methyl)piperidine-4-carboxylic acid] | + to ++++ |  |  |
| CC(C)(C)[C@H]1CC[C@H](Oc2ccc3cc(C(N4CCC(C(=O)O)CC4)C(F)(F)F)ccc3c2)CC1 (stereo partly drawn) [Example 22, 1-(1-(6-(trans-4-tert-Butylcyclohexyloxy)naphthalen-2-yl)-2,2,2-trifluoroethyl)piperidine-4-carboxylic acid] | + to ++++ | + to ++++ | < 10 |
| CC(C)C1CCC(Oc2ccc3cc(CN4CCC(C(=O)O)CC4)ccc3c2)CC1 (stereo not shown) [Example 24, 1-((6-(4-Isopropylcyclohexyloxy)naphthalen-2-yl)methyl)piperidine-4-carboxylic acid] |  |  | < 10 |
| CC(C)(C)[C@H]1CC[C@@H](Oc2ccc3cc(CN4CCC(C(=O)O)CC4)ccc3c2)CC1 [Example 26, 1-((6-(cis-4-tert-Butylcyclohexyloxy)naphthalen-2-yl)methyl)piperidine-4-carboxylic acid] |  | + to ++++ | < 10 |
| CCC1CCC(Oc2ccc3cc(CN4CCC(C(=O)O)CC4)ccc3c2)CC1 (stereo not shown) [Example 30, 1-((6-(4-Ethylcyclohexyloxy)naphthalen-2-yl)methyl)piperidine-4-carboxylic acid] | + to ++++ | + to ++++ | < 10 |
| O=C(O)C1CCN(Cc2ccc3cc(OC4CCC5(CCCC5)CC4)ccc3c2)CC1 [Example 34, 1-((6-(Spiro[4.5]decan-8-yloxy)naphthalen-2-yl)methyl)piperidine-4-carboxylic acid] |  | + to ++++ |  |
| CC[C@H]1CC[C@@H](Oc2ccc3cc(CN4CCC(C(=O)O)CC4)ccc3c2)CC1 [Example 36, 1-((6-(cis-4-Ethylcyclohexyloxy)naphthalen-2-yl)methyl)piperidine-4-carboxylic acid] | + to ++++ | + to ++++ |  |
| CC[C@H]1CC[C@H](Oc2ccc3cc(CN4CCC(C(=O)O)CC4)ccc3c2)CC1 [Example 38, 1-((6-(trans-4-Ethylcyclohexyloxy)naphthalen-2-yl)methyl)piperidine-4-carboxylic acid] |  | + to ++++ |  |
| CC(C)(C)[C@H]1CC[C@H](Oc2ccc3nc(CN4CCC(C(=O)O)CC4)ccc3c2)CC1 [Example 42, 1-((6-(trans-4-tert-Butylcyclohexyloxy)quinolin-2-yl)methyl)piperidine-4-carboxylic acid] | + to ++++ | + to ++++ | < 10 |
| CC(C)(C)[C@H]1CC[C@H](Oc2ccc3cc(C(=O)N4CCC(C(=O)O)CC4)ccc3c2)CC1 [Example 48, 1-(6-(trans-4-tert-Butylcyclohexyloxy)-2-naphthoyl)piperidine-4-carboxylic acid] | + to ++++ | + to ++++ |  |
| CC(C)(C)C1CCC(=Cc2ccc3cc(CN4CCC(C(=O)O)CC4)ccc3c2)CC1 (stereo not shown) [Example 52, 1-((6-((4-tert-Butylcyclohexylidene)methyl)naphthalen-2-yl)methyl)piperidine-4-carboxylic acid] |  | + to ++++ |  |
| CC(C)(C)[C@H]1CC[C@H](Oc2ccc3cc(CN4CCC(C(=O)O)CC4)ccc3n2)CC1 [Example 55, 1-((2-(trans-4-tert-Butylcyclohexyloxy)quinolin-6-yl)methyl)piperidine-4-carboxylic acid] | + to ++++ |  |  |
| CCC1(C(=O)O)CCN(Cc2ccc3cc(O[C@H]4CC[C@H](C(C)(C)C)CC4)ccc3c2)CC1 [Example 56, 1-[6-(4-tert-Butyl-cyclohexyloxy)-naphthalen-2-ylmethyl]-4-ethyl-piperidine-4-carboxylic acid] | + to ++++ |  |  |
| CCCC1(C(=O)O)CCN(Cc2ccc3cc(O[C@H]4CC[C@H](C(C)(C)C)CC4)ccc3c2)CC1 [Example 57, 1-[6-(4-tert-Butyl-cyclohexyloxy)-naphthalen-2-ylmethyl]-4-propyl-piperidine-4-carboxylic acid] | + to ++++ | + to ++++ |  |
| CC1CN(Cc2ccc3cc(O[C@H]4CC[C@H](C(C)(C)C)CC4)ccc3c2)CCC1C(=O)O (stereo partly shown) [Example 58, 1-[6-(4-tert-Butyl-cyclohexyloxy)-naphthalen-2-ylmethyl]-3-methyl-piperidine-4-carboxylic acid] | + to ++++ | + to ++++ | < 10 |
| CC(C)(C)[C@H]1CC[C@H](Oc2ccc3cc(CN4CCC(C(=O)O)(c5ccccc5)CC4)ccc3c2)CC1 [Example 59, 1-[6-(4-tert-Butyl-cyclohexyloxy)-naphthalen-2-ylmethyl]-4-phenyl-piperidine-4-carboxylic acid] | + to ++++ |  |  |
| CC(C)(C)[C@H]1CC[C@H](Oc2ccc3cc(CN4CCCC(C(=O)O)CC4)ccc3c2)CC1 (stereo partly shown) [Example 60, 1-[6-(4-tert-Butyl-cyclohexyloxy)-naphthalen-2-ylmethyl]-perhydro-azepine-4-carboxylic acid] | + to ++++ |  | < 10 |
| CC(C)(C)[C@H]1CC[C@H](Oc2ccc3cc(CN4CCC(O)(C(=O)O)CC4)ccc3c2)CC1 [Example 61, 1-[6-(4-tert-Butyl-cyclohexyloxy)-naphthalen-2-ylmethyl]-4-hydroxy-piperidine-4-carboxylic acid] | + to ++++ | + to ++++ | < 10 |
| CC(C)(C)[C@H]1CC[C@H](Oc2ccc3cc(CN4CCC(CC(=O)O)CC4)ccc3c2)CC1 [Example 62, {1-[6-(4-tert-Butyl-cyclohexyloxy)-naphthalen-2-ylmethyl]-piperidin-4-yl}-acetic acid] | + to ++++ | + to ++++ |  |
| CC(C)(C)[C@H]1CC[C@H](Oc2ccc3cc(CN4CCC(C(=O)O)CC4)ncc3c2)CC1 [Example 75, 1-[7-(trans-4-tert-Butyl-cyclohexyloxy)-isoquinolin-3-ylmethyl]-piperidine-4-carboxylic acid] | + to ++++ | + to ++++ |  |
| CC1(C(=O)O)CCN(Cc2ccc3cc(O[C@H]4CC[C@H](C(C)(C)C)CC4)ccc3c2)CC1 [Example 77, 1-((6-(trans-4-tert-Butylcyclohexyloxy)naphthalen-2-yl)methyl)-4-methylpiperidine-4-carboxylic acid] | + to ++++ | + to ++++ | < 10 |
| O=C(O)C1CCN(Cc2ccc3cc(OC4CCCCCC4)ccc3c2)CC1 [Example 81, 1-((6-(cycloheptyloxy)naphthalen-2-yl)methyl)piperidine-4-carboxylic acid] |  | + to ++++ |  |
| O=C(O)C1CCN(Cc2ccc3cc(OC4CCOCC4)ccc3c2)CC1 [Example 83, 1-((6-(tetrahydro-2H-pyran-4-yloxy)naphthalen-2-yl)methyl)piperidine-4-carboxylic acid] | + to ++++ | + to ++++ |  |
| O=C(O)C1CCN(Cc2ccc3cc(OC4CCC5(CCCCC5)CC4)ccc3c2)CC1 [Example 85, 1-((6-(spiro[5.5]undecan-3-yloxy)naphthalen-2-yl)methyl)piperidine-4-carboxylic acid] | + to ++++ | + to ++++ |  |
| O=C(O)C1CCN(Cc2ccc3cc(OC4CCC5(CCC5)CC4)ccc3c2)CC1 [Example 87, 1-((6-(spiro[3.5]nonan-7-yloxy)naphthalen-2-yl)methyl)piperidine-4-carboxylic acid] |  | + to ++++ |  |
